This note sets out measurements from patent publication USRE42890E1, “Furazanobenzimidazoles” (Basilea Pharmaceutica AG, priority 2003, dated 2011).

The test system of the first test is Jurkat. The experiment in a line: MTS proliferation assay, Jurkat. The format is cell-based, human. Particulars: 72 h incubation, read-out: MTS proliferation assay IC 50 Jurkat. Summed up: (§1)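 A 72 h exposure to compound (final 0.3–10 μM, four levels) was followed by 3 h MTS incubation and an A492 read.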
Background: Tetrazolium assays rely on reduction of a dye to a coloured formazan, in cell work by metabolically active cells.
In the case of `N#CCCNc1nonc1-c1nc2ccccc2n1COc1ccccc1` [Example 95], the IC50 lay in the range of 100 to 1000 nM.

Take `N#CCCNc1nonc1-c1nc2ccccc2n1COc1ccc(Cl)cc1` [Example 93]: the IC50 is 10 to 100 nM.

The next test concerns Jily. The test is described as follows: MTS proliferation assay, Jily. It counts as cell-based. Particulars: 72 h incubation, read-out: MTS proliferation assay IC 50 Jily. The gist of the method:
(§2)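 Proliferation is followed by MTS conversion, measured as absorbance at 492 nm. Cells are exposed for 72 h to four fixed compound concentrations (10 μM down to 0.3 μM) under 37° C, 7.5% CO2 culture conditions.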
Consider `N#CCCNc1nonc1-c1nc2ccccc2n1COc1ccccc1` [Example 95], for which the IC50 was in the range of 100 to 1000 nM.

For `N#CCCNc1nonc1-c1nc2ccccc2n1COc1ccc(Cl)cc1` [Example 93], the IC50 was 10 to 100 nM.

A further test relates to HT1080. The test is described as follows: MTS proliferation assay, HT1080. The format is cell-based, human. Particulars: HT1080, 72 h incubation; read-out: MTS proliferation assay IC 50 HT1080. Summed up: as §1
As to `N#CCCNc1nonc1-c1nc2ccccc2n1COc1ccccc1` [Example 95], the IC50 lay in the range of 100 to 1000 nM.

Regarding `N#CCCNc1nonc1-c1nc2ccccc2n1COc1ccc(Cl)cc1` [Example 93], the IC50 was in the range of 100 to 1000 nM.

The test system of the next test is HeLa. The experiment in a line: MTS proliferation assay, HeLa. It counts as cell-based, human. Conditions: 72 h incubation, read-out: MTS proliferation assay IC 50 HeLa. The gist of the method:
as §1
Take `N#CCCNc1nonc1-c1nc2ccccc2n1COc1ccccc1` [Example 95]: the IC50 was 100 to 1000 nM.

Take `N#CCCNc1nonc1-c1nc2ccccc2n1COc1ccc(Cl)cc1` [Example 93]: the IC50 was 100 to 1000 nM.

A further test relates to MRC5. The experiment in a line: MTS proliferation assay, MRC5. The format is cell-based. Conditions: MRC5, 72 h incubation; read-out: MTS proliferation assay IC 50 MRC5. The gist of the method:
as §2
On to `N#CCCNc1nonc1-c1nc2ccccc2n1COc1ccccc1` [Example 95], for which the IC50 fell in the range of 100 to 1000 nM.

In the case of `N#CCCNc1nonc1-c1nc2ccccc2n1COc1ccc(Cl)cc1` [Example 93], the IC50 is 100 to 1000 nM.

The subject of the next test is adherent cells or suspension cells. The experiment in a line: Hoechst 33342 nuclear staining (fraction of apoptotic nuclei). Conditions: H460, conc 0.01 μm. Set-up: key: 0 relating to no activity; 1 relating to weak activity comprising less than 70% of the cells; score 2 relating to strong activity comprising more than 70% of the cells. It counts as cell-based.
Consider `N#CCCNc1nonc1-c1nc2ccccc2n1COc1ccc(Cl)cc1` [Example 93], for which the “Hoechst 33342 nuclear staining score” value is 0.

Still in this test, the particulars now being: H460, conc 0.1 μm.
With `N#CCCNc1nonc1-c1nc2ccccc2n1COc1ccc(Cl)cc1` [Example 93], the “Hoechst 33342 nuclear staining score” value is 1 (1 relating to weak activity comprising less than 70% of the cells).

Staying with this test, now noted: H460, conc 1 μm.
Turning to `N#CCCNc1nonc1-c1nc2ccccc2n1COc1ccc(Cl)cc1` [Example 93], the “Hoechst 33342 nuclear staining score” value is 2 (score 2 relating to strong activity comprising more than 70% of the cells).

Staying with this test, now noted: HeLa, conc 0.01 μm.
As for `N#CCCNc1nonc1-c1nc2ccccc2n1COc1ccccc1` [Example 95], the “Hoechst 33342 nuclear staining score” value is given as 0.

Consider `N#CCCNc1nonc1-c1nc2ccccc2n1COc1ccc(Cl)cc1` [Example 93], for which the “Hoechst 33342 nuclear staining score” value turned out to be 0.

The test is the same for the next values; noted with them: HeLa, conc 0.1 μm.
Regarding `N#CCCNc1nonc1-c1nc2ccccc2n1COc1ccccc1` [Example 95], the “Hoechst 33342 nuclear staining score” value is listed as 0.

As for `N#CCCNc1nonc1-c1nc2ccccc2n1COc1ccc(Cl)cc1` [Example 93], the “Hoechst 33342 nuclear staining score” value is reported as 0.

The same test, now with this note: HeLa, conc 1 μm.
With `N#CCCNc1nonc1-c1nc2ccccc2n1COc1ccccc1` [Example 95], the “Hoechst 33342 nuclear staining score” value was 1 (1 relating to weak activity comprising less than 70% of the cells).

As for `N#CCCNc1nonc1-c1nc2ccccc2n1COc1ccc(Cl)cc1` [Example 93], the “Hoechst 33342 nuclear staining score” value is 2 (score 2 relating to strong activity comprising more than 70% of the cells).

The same test, now with this note: Jily, conc 0.01 μm.
Take `N#CCCNc1nonc1-c1nc2ccccc2n1COc1ccccc1` [Example 95]: the “Hoechst 33342 nuclear staining score” value was 0.

`N#CCCNc1nonc1-c1nc2ccccc2n1COc1ccc(Cl)cc1` [Example 93]: the “Hoechst 33342 nuclear staining score” value amounted to 0.

Staying with this test, now noted: Jily, conc 0.1 μm.
Turning to `N#CCCNc1nonc1-c1nc2ccccc2n1COc1ccccc1` [Example 95], the “Hoechst 33342 nuclear staining score” value was determined as 0.

On to `N#CCCNc1nonc1-c1nc2ccccc2n1COc1ccc(Cl)cc1` [Example 93], for which the “Hoechst 33342 nuclear staining score” value was 2 (score 2 relating to strong activity comprising more than 70% of the cells).

The test is the same for the next values; noted with them: Jily, conc 1 μm.
Turning to `N#CCCNc1nonc1-c1nc2ccccc2n1COc1ccccc1` [Example 95], the “Hoechst 33342 nuclear staining score” value was 1 (1 relating to weak activity comprising less than 70% of the cells).

On to `N#CCCNc1nonc1-c1nc2ccccc2n1COc1ccc(Cl)cc1` [Example 93], for which the “Hoechst 33342 nuclear staining score” value is given as 2 (score 2 relating to strong activity comprising more than 70% of the cells).

The test is the same for the next values; noted with them: Jurkat, conc 0.01 μm.
As to `N#CCCNc1nonc1-c1nc2ccccc2n1COc1ccccc1` [Example 95], the “Hoechst 33342 nuclear staining score” value is reported as 0.

For `N#CCCNc1nonc1-c1nc2ccccc2n1COc1ccc(Cl)cc1` [Example 93], the “Hoechst 33342 nuclear staining score” value was 0.

Staying with this test, now noted: Jurkat, conc 0.1 μm.
On to `N#CCCNc1nonc1-c1nc2ccccc2n1COc1ccccc1` [Example 95], for which the “Hoechst 33342 nuclear staining score” value was 0.

As to `N#CCCNc1nonc1-c1nc2ccccc2n1COc1ccc(Cl)cc1` [Example 93], the “Hoechst 33342 nuclear staining score” value is on record as 2 (score 2 relating to strong activity comprising more than 70% of the cells).

Staying with this test, now noted: Jurkat, conc 1 μm.
For the compound `N#CCCNc1nonc1-c1nc2ccccc2n1COc1ccccc1` [Example 95], the “Hoechst 33342 nuclear staining score” value is on record as 2 (score 2 relating to strong activity comprising more than 70% of the cells).

For the compound `N#CCCNc1nonc1-c1nc2ccccc2n1COc1ccc(Cl)cc1` [Example 93], the “Hoechst 33342 nuclear staining score” value is on record as 2 (score 2 relating to strong activity comprising more than 70% of the cells).

The test is the same for the next values; noted with them: MRC5, conc 0.01 μm.
Consider `N#CCCNc1nonc1-c1nc2ccccc2n1COc1ccccc1` [Example 95], for which the “Hoechst 33342 nuclear staining score” value is recorded as 0.

With `N#CCCNc1nonc1-c1nc2ccccc2n1COc1ccc(Cl)cc1` [Example 93], the “Hoechst 33342 nuclear staining score” value is 0.

Still in this test, the particulars now being: MRC5, conc 0.1 μm.
On to `N#CCCNc1nonc1-c1nc2ccccc2n1COc1ccccc1` [Example 95], for which the “Hoechst 33342 nuclear staining score” value is listed as 0.

As to `N#CCCNc1nonc1-c1nc2ccccc2n1COc1ccc(Cl)cc1` [Example 93], the “Hoechst 33342 nuclear staining score” value came out at 0.

The same test, now with this note: MRC5, conc 1 μm.
Turning to `N#CCCNc1nonc1-c1nc2ccccc2n1COc1ccccc1` [Example 95], the “Hoechst 33342 nuclear staining score” value is 0.

`N#CCCNc1nonc1-c1nc2ccccc2n1COc1ccc(Cl)cc1` [Example 93]: the “Hoechst 33342 nuclear staining score” value is 2 (score 2 relating to strong activity comprising more than 70% of the cells).

The test is the same for the next values; noted with them: PBLs, conc 0.01 μm.
Take `N#CCCNc1nonc1-c1nc2ccccc2n1COc1ccccc1` [Example 95]: the “Hoechst 33342 nuclear staining score” value stood at 0.

`N#CCCNc1nonc1-c1nc2ccccc2n1COc1ccc(Cl)cc1` [Example 93]: the “Hoechst 33342 nuclear staining score” value amounted to 0.

Still in this test, the particulars now being: PBLs, conc 0.1 μm.
With `N#CCCNc1nonc1-c1nc2ccccc2n1COc1ccccc1` [Example 95], the “Hoechst 33342 nuclear staining score” value came out at 0.

`N#CCCNc1nonc1-c1nc2ccccc2n1COc1ccc(Cl)cc1` [Example 93]: the “Hoechst 33342 nuclear staining score” value is given as 0.

The test is the same for the next values; noted with them: PBLs, conc 1 μm.
As for `N#CCCNc1nonc1-c1nc2ccccc2n1COc1ccccc1` [Example 95], the “Hoechst 33342 nuclear staining score” value turned out to be 0.

As to `N#CCCNc1nonc1-c1nc2ccccc2n1COc1ccc(Cl)cc1` [Example 93], the “Hoechst 33342 nuclear staining score” value was determined as 0.
